Experiments:
[1] = Bioavailability and pharmacokinetics of (S)-2-carbamoyloxyl-1-o-chlorophenylethanol preparations after IV and IN administration; type: in vivo; conditions: rabbits
Description: A formulation for IV injection was prepared by dissolving 15 mg (S)-2-carbamoyloxyl-1-o-chlorophenylethanol in 1 mL of 40% PEG 400 and 60% water and filtering through a sterile membrane filter under aseptic conditions. The formulations were administered to rabbits (n=2-4) at the two dosing levels of 2.5 mg/kg and 5 mg/kg in a manner analogous to that described in Example 7. A repeated dosing regimen at 5 minute intervals was also studied in the nasal application of the preparation of the invention. […] To the plasma sample, 50 μl of an internal standard solution (2-(2,6-dichlorophenyl)-2-carbamoyloxyethyl)oxocarboxamide-10 μg/ml) and 5 ml of methyl-butyl ether were added. The mixture was vortexed for 60 seconds and centrifuged at 3500 rpm for 10 minutes. […] The residue was reconstituted with 200 μl of deionized water. The (S)-2-carbamoyloxyl-1-o-chlorophenylethanol concentration in the plasma was determined by HPLC in the use of a mobile phase consisting of 20% acetonitrile and 80% water with a flow rate of 1 ml/minute and UV detection at 210 nm. The detection limit for (S)-2-carbamoyloxyl-1-o-chlorophenylethanol was 23 nmol/l. The pharmacokinetic parameters determined after IV and IN administration of (S)-2-carbamoyloxyl-1-o-chlorophenylethanol at two dose strengths are presented in Table VIII. […]

in vitro = conditions: for Mean Transnasal Flux: diazepam, 37° C., n = 2
Description: The nasal mucous membrane used in these in vitro experiments was obtained from New Zealand White rabbits (2.5-3.0 kg). Rabbits were sacrificed by IV injection of phenobarbital. The nasal septum was carefully removed from a bone block using surgical scissors and a bone-cutting saw. Two pieces of nasal mucous membranes were then carefully stripped from the nasal septum without touching the center of the membrane surface and rinsed with normal saline solution. The mucosal membrane was mounted between two half-cells of a glass diffusion cell apparatus. The exposed area of the nasal membrane was approximately 0.64 cm^2. A test solution or suspension (3.5 ml) was introduced into the mucosal side of the membrane in the donor compartment while 3.5 ml of 10% ethanol, 40% propylene glycol, and 50% pH 7.4 isotonic phosphate buffer solution was added to the receptor compartment. The entire diffusion system was maintained at 37° C. throughout the experiment. At predetermined time intervals, 100 μl of the receptor solution was withdrawn for the assay and refilled with the same volume of fresh receptor medium to keep the volume constant. The steady-state flux value was determined from the slope of the straight line attained from the plot of the cumulative amount of drug permeated as a function of time. Each experiment was carried out in at least duplicate.
A high pressure liquid chromatographic system equipped with a multi-solvent delivery system (Model 600E, Waters Associates, Milford, Mass.), an auto-injector (Model 717 Plus, Waters Ass.), a photodiode array detector (Model 996, Waters Ass.), a reverse phase Symmetric C18 column (150 mm ×3.9 mm ID, 5 μm), and a Millenium 2010 software computer system was used in this study.
In these studies, a series of bile salts such as sodium cholate, sodium deoxycholate, sodium taurocholate, and sodium glycocholate, and a lecithin such as lysophosphatidylcholine were examined. The permeation rates were measured using the method described under the in vitro membrane permeation test method.
The permeation rates were determined utilizing the method described in Example 1.
The in vitro membrane permeation rates were measured using the test method described in Example 1.
Sample drug solutions (10 mg/ml) were prepared with the vehicle with and without the bile salt. The membrane permeation rates were measured in the use of the test method described in Example 1.
The in vitro permeation experiments were performed using the test method described in Example 1.

[2] = Bioavailability and pharmacokinetics of clonazepam preparations after IV and IN administration; conditions: rabbits
Description: The formulations were administered to rabbits (n=3) at a dose of 0.2 mg/kg in a manner analogous to those described in Example 7. A repeated dosing regimen (double and triple applications) at 5 minutes time intervals was also tested. Blood samples were obtained from the ear vein at the following time intervals: 0, 2, 5, 10, 20, 30, 45, 60, and 120 minutes. From the blood samples, plasma was separated by centrifugation and stored at −20° C. until analysis. For analysis, plasma samples (0.5 ml) were accurately transferred into a 15-ml test tube. […] To the above mixture, 5 ml of diethyl ether was added and this mixture was vortexed for 60 seconds and centrifuged at 4000 rpm for 10 minutes. The upper ethereal solution was transferred to a 5 ml test tube and evaporated in a vacuum evaporator at 40° C. for 30 minutes. The residue was reconstituted with 100 μl of the mobile phase for HPLC analysis consisting of 20% methanol, 30% acetonitrile, and a 50% pH 3.5 KH2PO4/H3PO4 buffer/solution. The clonazepam concentration in the plasma was determined by HPLC using a flow rate of 1 ml/minute and the UV detection at 254 nm. The detection limit for clonazepam was 16 nmol/l.

[3] = dogs, after the nasal administration; cited from earlier work
[4] = vehicle 30% ethanol, 60% propylene glycol, 10% water, initial drug concentration 5mg/ml

## NC(=O)OC[C@@H](O)c1ccccc1Cl [(S)-2-carbamoyloxyl-1-o-chlorophenylethanol]
[1]; IN 5 mg/kg × 2 vs IV 5 mg/kg
  time at which plasma concentration after the second dosing exceeded the plasma level of a single IV injection: 30 min
[1]; second IN application 5 minutes after the first dosing, 5 mg/kg × 2
  Cmax and AUC0-240 minutes after the second intranasal application: doubled
In vitro; New Zealand White, rabbit
  Papp at 5 mg/ml: 27.1 ×10⁻⁶ cm/s
In vitro; New Zealand White, rabbit, 5 mg/ml
  Transnasal Flux: 487.6 μg/cm^2/hr

## O=C1CN=C(c2ccccc2Cl)c2cc([N+](=O)[O-])ccc2N1 [Clonazepam, clonazepam]
[2]; after the first intranasal application
  time to initial peak plasma concentration: ≤ 2 min
[2]; first intranasal application 0.2 mg/kg
  peak plasma level relative to the IV injection: about 32%
[2]; third IN application at 5 minutes intervals, peak observed at 15 minutes
  peak plasma concentration after the third application compared with the single IV injection: nearly identical
In vitro; New Zealand White, rabbit
  Papp at 5 mg/ml: 19.3 ×10⁻⁶ cm/s
In vitro; [4]
  Transnasal Flux: 347.7 μg/cm^2/hr

## CN1C(=O)CN=C(c2ccccc2)c2cc(Cl)ccc21 [Diazepam, diazepam]
In vitro; 10 mg/ml diazepam in 30% ethanol, 60% propylene glycol, 10% water with vs without 1% SGC (FIG. 3)
  increase in the steady-state flux when 1% sodium glycocholate is incorporated into the vehicle: approximately 50%
In vitro; vehicle 1% Lysophosphotidylcholine/H2O
  Mean Transnasal Flux: 125.5 μg/cm^2/hr
In vitro; vehicle 1% Sodium Cholate/H2O
  Mean Transnasal Flux: 66.3 μg/cm^2/hr
In vitro; vehicle 1% Sodium Deoxycholate/H2O
  Mean Transnasal Flux: 74.9 μg/cm^2/hr
In vitro; vehicle 1% Sodium Glycocholate/H2O
  Mean Transnasal Flux: 96.4 μg/cm^2/hr
In vitro; vehicle 1% Sodium Taurocholate/H2O
  Mean Transnasal Flux: 87.0 μg/cm^2/hr
In vitro; vehicle Water
  Mean Transnasal Flux: 79.5 μg/cm^2/hr
In vitro; [4]
  Transnasal Flux: 246.0 μg/cm^2/hr

## Cc1nnc2n1-c1ccc(Cl)cc1C(c1ccccc1Cl)=NC2 [triazolam]
[3]
  time to maximum plasma concentration: 18 min

Reference: patent US6627211B1, “Transnasal anticonvulsive compositions and modulated process” (SK Corporation, priority 1999, dated 2003)
